# Where two headings read alike, the source gives them in different places.
# Key:
# CB1Rs = CB1Rs (Mus musculus (Mouse), UniProt P47746); test: Competition receptor binding with [3H]CP-55,940 in mouse brain homogenates
# Procedure: Mouse brain homogenates for in vitro assays were prepared as previously described. Briefly, whole brains were harvested from B6SJL mice, snap-frozen in liquid nitrogen and stored at −80° C. On the day membrane homogenates were to be prepared, brains were thawed on ice, then pooled in a 40 mL Dounce glass homogenizer and suspended in 5 volumes of ice cold homogenization buffer (50 mM HEPES, pH 7.4, 3 mM MgCl2, and 1 mM EGTA). Brains were then subjected to 10 complete strokes with an A pestle, followed by centrifugation at 40,000×g for 10 minutes at +4° C. Resulting supernatants were discarded, and the pellet was resuspended, homogenized and centrifuged similarly twice more, with supernatants being discarded. For the final resuspension and homogenization with a B pestle, ice-cold 50 mM HEPES was used in place of homogenization buffer, and homogenates were aliquoted and stored at −80° C. Protein concentrations of homogenates were determined using the BCA™ Protein Assay (Thermo Scientific, Rockford, Ill.).
# Competition receptor binding was performed as previously described. […] Reactions were terminated by rapid vacuum filtration through Whatman GF/B glass fiber filters, followed by five washes with ice-cold buffer (50 mM Tris, 0.05% BSA). Filters were immediately placed into 7 mL scintillation vials to which 4 mL of ScintiVerse™ BD Cocktail scintillation fluid (Fisher Scientific, Fair Lawn, N.J.) was added. Bound radioactivity was determined after overnight incubation at room temperature and shaking, by liquid scintillation spectrophotometry with an efficiency of 44% (Tri Carb 2100 TR Liquid Scintillation Analyzer, Packard Instrument Company, Meriden, Conn.). Specific binding is expressed as total binding minus non-specific binding, and is graphed for each data point as a percentage of specific binding occurring in the absence of any competitor.
# Curve fitting and statistical analyses for in vitro experiments were performed using GraphPad Prism™ version 5.0b (GraphPad Software Inc., San Diego, Calif.). The Cheng-Prusoff equation [45] was used to convert the experimental IC50 values obtained from competition receptor binding experiments to Ki values, a quantitative measure of receptor affinity. Non-linear regression for one-site competition was used to determine the IC50 for competition receptor binding. Curve fitting of concentration-effect curves via non-linear regression was also employed to determine the EC50 (a measure of potency) and Emax (a measure of efficacy) for [^35S]GTPγS concentration-effects experiments. […] Data are expressed as mean±SEM. The Student's t-test was used to determine statistical significance (P<0.05) between two groups, while a one-way ANOVA, followed by Tukey's Multiple Comparison post-hoc test, was used to determine statistical significance (P<0.05) between three or more groups.
# The prepared analogues were subjected to in vitro pharmacological testing, which included receptor binding and functional assays at both cannabinoid receptors. Initial receptor binding screens at both CB1Rs and CB2Rs were conducted for the analogues prepared.
# NIH Swiss mice = test: Core body temperature by biotelemetry (cannabinoid tetrad, hypothermia); assay type: in vivo, mouse
# Procedure: Prior to surgery (see below), male NIH Swiss mice (Harlan Sprague Dawley Inc., Indianapolis, Ind.), weighing approximately 25-30 g, were housed 3 animals per Plexiglas® cage (15.24×25.40×12.70 cm) in a temperature-controlled room in an Association for Assessment and Accreditation of Laboratory Animal Care (AAALAC) accredited animal facility at the University of Arkansas for Medical Sciences. Room conditions were maintained at 22±2° C. and 45-50% humidity. Lights were set to a 12-h light/dark cycle. Animals were fed Lab Diet rodent chow (Laboratory Rodent Diet #5001, PMI Feeds, Inc., St. Louis, Mo.) and water ad libitum throughout testing Animals were acclimated to the laboratory environment for ˜7 days prior to experiments, and to the biotelemetry chambers for at least 2 hours prior to initiation of data acquisition. All test conditions used groups of 5 or 6 mice, and all mice were drug-naïve (with the exception of surgical anesthetics) prior to testing.
# Cannabinoid effects on core temperature and locomotor activity were measured using surgically-implanted biotelemetry probes. Following appropriate anesthetization with ketamine (100 mg/kg, intraperitoneal [i.p.]) and xylazine (10 mg/kg, i.p.), the abdominal area of each mouse was shaved and sanitized with iodine swabs. A rostral-caudal cut approximately 1.5 cm in length was made with skin scissors, providing access to the intraperitoneal cavity. A cylindrical glass-encapsulated radiotelemetry probe (model ER-4000 E-Mitter, Mini Mitter Co., Inc., Bend, Oreg.) was then inserted, and the incision was closed using absorbable 5-0 chromic gut suture material. At least 7 days were imposed between surgery and experimental observation of cannabinoid effects to allow incisions to heal and mice to recover normal body weights. Following surgery, implanted mice were individually housed in Plexiglas® mouse cages (15.24×25.40×12.70 cm) for the duration of all temperature and locomotor activity experiments Implanted transmitters produced activity- and temperature-modulated signals that were transmitted to a receiver (model ER-4000 Receiver, Mini Mitter Co., Inc., Bend, Oreg.) underneath each mouse cage. Receivers were housed in light- and sound-attenuating cubicles (Med Associates model ENV-022MD, St. Albans, Vt.) equipped with exhaust fans, which further masked ambient laboratory noise. On experimental days, mice were weighed, marked, and returned to their individual cages during which at least 1 hr of baseline data were collected. […]. Mice were then placed into a new cage with fresh bedding to stimulate exploratory behavior. Temperature and locomotor activity data were collected at regular 5-min intervals and processed simultaneously by the Vital View data acquisition system (Mini Mitter Co., Inc., Bend, Oreg.) for at least 10 hrs.
# For core body temperature experiments, the area under the curve (AUC) was calculated using a trapezoidal rule from 0-500 minutes, and statistical significance (P<0.05) was determined using a one-way ANOVA, followed by Tukey's HSD post-hoc test. For locomotor activity, total locomotor counts were summed from 0-800 minutes. Because locomotor, analgesia and catalepsy data were not normally distributed, Kruskal-Wallis one-way ANOVA on ranks were performed, and all pair-wise comparisons were then made using the Tukey's HSD tests. In vivo statistical calculations were performed using SigmaStat 3 (Systat Software, Inc., San Jose, Calif.).
# [1] = mouse brain homogenates, 0.2 nM [3H]CP-55,940, read-out: [3H]CP binding Ki
Compound,"Ki (CB1Rs; Table 3, read-out: mCB1R Ki) [nM]","Ki (CB1Rs; mouse brain homogenates, 0.2 nM [3H]CP-55,940, listed as JWH-073-M4, read-out: [3H]CP binding Ki) [nM]",Ki (CB1Rs; [1]) [nM],"JWH-018-induced hypothermia blunted by co-administration, core body temperature (NIH Swiss mice; M4 10 mg/kg i.p. co-administered with JWH-018 3 mg/kg i.p.)","change in body temperature, given alone (NIH Swiss mice; M4 10 mg/kg, i.p., alone)","minimum core body temperature recorded (NIH Swiss mice; 10 mg/kg, i.p.) [°C]","time to maximal core body temperature reduction (NIH Swiss mice; 10 mg/kg, i.p.) [min]"
CCCCn1cc(C(=O)c2cccc3ccccc23)c2cccc(O)c21 [Compound M4],24.2 ± 17.2,~120,122,33.09+/−0.70 °C,no significant change in body temperature,–,–
"CCCCn1cc(C(=O)c2cccc3ccccc23)c2ccccc21 [JWH-073, (1-butyl-1H-indole-3-yl)-1-naphthalenyl-methanone]",12.9 ± 3.4,–,12.9 ± 3.4,–,–,29.74±1.44,54.17 ± 5.23

# From patent US9416103B2, “Use of the aminoalkylindole JWH-073-M4 and related compounds as neutral CB1 receptor antagonists for the treatment of alcoholism, drug abuse, obesity, and obesity-related diseases” (The Board of Trustees of the University of Arkansas, priority 2012, dated 2016)
